In patent US10752587B2, “Homobispiperidinyl derivatives as liver X receptor beta agonists, compositions and their use” (Merck Sharp & Dohme Corp., priority 2015, dated 2020):
pEC50: −log10 of the molar value. Like-named read-outs stand apart in the source and are kept apart here.

Legend:
[1] = target: T1, glutathione-S-transferase (GST) tagged LXRbeta LBD (ligand binding domain) (Homo sapiens, UniProt P55055); assay: LanthaScreen TR-FRET Liver X Receptor Coactivator Assay, co-activator recruitment to LXRbeta LBD; format: biochemical; conditions: for Emax: read-out: LXR beta Activity @ max dose (%); for pEC50: read-out: LXR beta IP
T1 construct: purchased Invitrogen pv4658.pps
T1 sequence (P55055 222-460 limits assumed): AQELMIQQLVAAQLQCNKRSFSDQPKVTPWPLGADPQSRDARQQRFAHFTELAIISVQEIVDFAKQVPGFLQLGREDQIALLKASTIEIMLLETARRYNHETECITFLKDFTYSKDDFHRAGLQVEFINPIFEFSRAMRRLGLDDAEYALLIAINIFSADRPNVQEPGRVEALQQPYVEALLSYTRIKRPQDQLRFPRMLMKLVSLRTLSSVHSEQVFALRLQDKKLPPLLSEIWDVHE
Method in brief: (§1)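 TR-FRET coactivator recruitment; compound + LBD, then fluorescein-coactivator peptide/Tb-anti-GST Ab mix; RT incubation; IP and Emax vs T0901317.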

[2] = target: T2, glutathione-S-transferase (GST) tagged LXRalpha LBD (ligand binding domain) (Homo sapiens, UniProt Q13133); assay: LanthaScreen TR-FRET Liver X Receptor Coactivator Assay, co-activator recruitment to LXRalpha LBD; format: biochemical; conditions: for Emax: read-out: LXR alpha Activity @ max dose (%); for pEC50 / LXR alpha IP (nM): potency (Inflection Point, IP), co-activator recruitment to LXRalpha LBD, in relation to T0901317; for pEC50: read-out: LXR alpha IP
T2 construct: purchased Invitrogen pv4655
T2 sequence (Q13133 209-447 limits assumed): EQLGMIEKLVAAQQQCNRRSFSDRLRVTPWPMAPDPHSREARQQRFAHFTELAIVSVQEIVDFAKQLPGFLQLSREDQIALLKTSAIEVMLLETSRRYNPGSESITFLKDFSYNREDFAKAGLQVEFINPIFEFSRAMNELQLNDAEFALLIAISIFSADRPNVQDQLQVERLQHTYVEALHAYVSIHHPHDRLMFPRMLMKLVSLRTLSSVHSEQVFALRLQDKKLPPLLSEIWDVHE
Method in brief: as §1

[3] = efficacy at max dose, in relation to reference dual agonist T0901317
[4] = potency (Inflection Point, IP), co-activator recruitment to LXRbeta LBD, in relation to T0901317

Row | Compound | Emax [1, 3] | pEC50 [1, 4] | Emax [2, 3] | pEC50 [2] | EC50 ([1]; LXR beta IP (nM), potency (Inflection Point, IP), co-activator recruitment to LXRbeta LBD, in relation to T0901317) | Emax [1] | LXR alpha IP (nM) [2] | Emax [2]
1 | CN(C)C(=O)c1ccc(N2CCC(CC3CCN(C(=O)[C@@](O)(c4cccc(Cl)c4)C(F)(F)F)CC3)CC2)nc1Cl [Example 7-70, 2-chloro-6-[4-({1-[(2S)-2-(3-chlorophenyl)-3,3,3-trifluoro-2-hydroxypropanoyl]piperidin-4-yl}methyl)piperidin-1-yl]-N,N-dimethyl-pyridine-3-carboxamide] | 110% | 7.60 | 34% | 5.90 | – | – | – | –
2 | CCN(C)C(=O)c1ccc(N2CCC(CC3CCN(C(=O)[C@](O)(c4ccccc4)C(F)(F)F)CC3)CC2)cc1Cl [Example 4-12, 2-chloro-N-ethyl-N-methyl-4-[4-({1-[(2R)-3,3,3-trifluoro-2-hydroxy-2-phenylpropanoyl]piperidin-4-yl}methyl)piperidin-1-yl]benzamide] | 83% | 7.85 | 34% | 6.78 | – | – | – | –
3 | CN(C)C(=O)c1ccc(N2CCC(CC3CCN(C(=O)[C@](O)(c4ccccc4)C(F)(F)C(F)(F)F)CC3)CC2)cc1 [Example 2-140, N,N-dimethyl-4-[4-({1-[(2R)-3,3,4,4,4-pentafluoro-2-hydroxy-2-phenylbutanoyl]piperidin-4-yl}methyl)piperidin-1-yl]benzamide] | 118% | 7.08 | 43% | 6.08 | – | – | – | –
4 | CN(C)C(=O)c1ccc(N2CCC(CC3CCN(C(=O)C(O)(c4ccccc4)c4ccccc4)CC3)CC2)nc1Cl [Example 7-95, 2-chloro-6-[4-({1-[hydroxy(diphenyl)acetyl]piperidin-4-yl}methyl)piperidin-1-yl]-N,N-dimethylpyridine-3-carboxamide] | – | – | – | – | 98 nM | 21% | NO IP | 1%
5 | CN(C)C(=O)c1ccc(N2CCC(CC3CCN(C(=O)[C@](O)(c4ccccc4F)C(F)(F)F)CC3)CC2)nc1Cl [Example 7-80, 2-chloro-N,N-dimethyl-6-[4-({1-[(2R)-3,3,3-trifluoro-2-(2-fluorophenyl)-2-hydroxypropanoyl]piperidin-4-yl}methyl)piperidin-1-yl]pyridine-3-carboxamide] | 85% | 7.92 | 27% | 6.37 | – | – | – | –
6 | CCOc1cccc([C@@](O)(C(=O)N2CCC(CC3CCN(c4ccc(C(=O)N(C)C)c(Cl)n4)CC3)CC2)C(F)(F)F)c1 [Example 7-92, 2-chloro-6-[4-({1-[(2R)-2-(3-ethoxyphenyl)-3,3,3-trifluoro-2-hydroxypropanoyl]piperidin-4-yl}methyl)piperidin-1-yl]-N,N-dimethylpyridine-3-carboxamide] | 51% | 8.22 | 8% | – | – | – | NO IP | –
7 | CN(C)C(=O)c1ccc(N2CCC(CC3CCN(C(=O)[C@](O)(c4cccc(C(F)(F)F)c4)C(F)(F)F)CC3)CC2)cc1 [Example 2-136, N,N-dimethyl-4-{4-[(1-{(2R)-3,3,3-trifluoro-2-hydroxy-2-[3-(trifluoromethyl)phenyl]propanoyl}piperidin-4-yl)methyl]piperidin-1-yl}benzamide] | 64% | 7.16 | 20% | 6.15 | – | – | – | –
8 | CCOc1cccc([C@@](O)(C(=O)N2CCC(CC3CCN(c4ccc(C(=O)N(C)C)c(C)c4)CC3)CC2)C(F)(F)F)c1 [Example 2-151, 4-[4-({1-[(2R)-2-(3-ethoxy-phenyl)-3,3,3-trifluoro-2-hydroxy-propanoyl]piperidin-4-yl}methyl)piperidin-1-yl]-N,N,2-trimethyl-benzamide] | 45% | 8.05 | 4% | – | – | – | NO IP | –
9 | CN(C)C(=O)c1ccc(N2CCC(CC3CCN(C(=O)C(F)(F)c4ccccc4)CC3)CC2)nc1Cl [Example 7-86, 2-chloro-6-[4-({1-[difluoro(phenyl)acetyl]piperidin-4-yl}methyl)piperidin-1-yl]-N,N-dimethylpyridine-3-carboxamide] | 75% | 6.78 | 32% | – | – | – | NO IP | –
10 | O=C(c1ccc(N2CCC(OC3CCN(C(=O)[C@](O)(c4ccccc4)C(F)(F)F)CC3)CC2)cc1Cl)N1CCC[C@H]1CO [Example 4-7, (2R)-3-(4-{[1-(3-chloro-4-{[(2S)-2-(hydroxy-methyl)pyrrolidin-1-yl]carbonyl}phenyl)piperidin-4-yl]oxy}piperidin-1-yl)-1,1,1-trifluoro-3-oxo-2-phenylpropan-2-ol] | 76% | 7.51 | 50% | 6.29 | – | – | – | –
11 | COc1cccc([C@@](O)(C(=O)N2CCC(CC3CCN(c4cnc(C(=O)N(C)C)c(Cl)c4)CC3)CC2)C(F)(F)F)c1 [Example 2-3, 3-chloro-N,N-dimethyl-5-[4-({1-[(2R)-3,3,3-trifluoro-2-hydroxy-2-(3-methoxyphenyl)propanoyl]piperidin-4-yl}methyl)piperidin-1-yl]pyridine-2-carboxamide] | 50% | 7.59 | 6% | – | – | – | NO IP | –
12 | CC(C)(C)OC(=O)NC1CN(C(=O)c2ccc(N3CCC(CC4CCN(C(=O)[C@](O)(c5cc(Cl)cc(Cl)c5)C(F)(F)F)CC4)CC3)cc2Cl)C1 [Example 4-25, tert-butyl [1-({2-chloro-4-[4-({1-[(2R)-2-(3,5-dichlorophenyl)-3,3,3-trifluoro-2-hydroxypropanoyl]piperidin-4-yl}methyl)piperidin-1-yl]phenyl}carbonyl)azetidin-3-yl]carbamate] | 40% | 8.52 | 0% | – | – | – | NO IP | –
13 | COc1cc(C)cc([C@@](O)(C(=O)N2CCC(CC3CCN(c4ccc(C(=O)N(C)C)c(Cl)c4)CC3)CC2)C(F)(F)F)c1 [Example 2-107, 2-chloro-N,N-dimethyl-4-[4-({1-[(2R)-3,3,3-trifluoro-2-hydroxy-2-(3-methoxy-5-methylphenyl)propanoyl]piperidin-4-yl}methyl)piperidin-1-yl]benzamide] | 14% | 6.62 | 4% | 6.51 | – | – | – | –
14 | CN(C)C(=O)c1ccc(N2CCC(CC3CCN(C(=O)C(C)(C)c4ccccc4)CC3)CC2)cc1Cl [Example 2-1, 2-chloro-N,N-dimethyl-4-(4-((1-(2-methyl-2-phenylpropanoyl)piperidin-4-yl)methyl)piperidin-1-yl)benzamide] | 59% | 6.80 | 5% | – | – | – | NO IP | –
15 | CN(C)C(=O)c1ccc(N2CCC(CC3CCN(C(=O)C(O)(c4cccc5c4CCC5)C(F)(F)F)CC3)CC2)cc1Cl (stereo not shown) [Example 2-170, 2-chloro-4-[4-({1-[2-(2,3-dihydro-1H-inden-4-yl)-3,3,3-trifluoro-2-hydroxy-propanoyl]piperidin-4-yl}methyl)piperidin-1-yl]-N,N-dimethyl-benzamide] | 19% | 7.57 | 0% | – | – | – | NO IP | –
16 | CN(C)C(=O)c1ccc(N2CCC(CC3CCN(C(=O)C(O)(c4cc(F)cc(Cl)c4)C(F)(F)F)CC3)CC2)nc1Cl (stereo not shown) [Example 7-109, 2-chloro-6-[4-({1-[2-(3-chloro-5-fluorophenyl)-3,3,3-trifluoro-2-hydroxypropanoyl]piperidin-4-yl}methyl)piperidin-1-yl]-N,N-dimethyl-pyridine-3-carboxamide] | 107% | 8.40 | 52% | 7.29 | – | – | – | –
